# Laboratory results published in patent US9364479B2, “Use of a receptor-type kinase modulator for treating polycystic kidney disease” (SYMPHONY EVOLUTION, INC., priority 2010, dated 2016).
# Where two headings read alike, the source gives them in different places.
# Assays:
# [1] = test system: Sigma, Non-selective; assay: NovaScreen assay; format: binding
# [2] = test system: A431 human epidermoid carcinoma xenograft; assay: A431 xenograft model, tumor growth; format: in vivo, mouse; settings: for ED50: Mus musculus
# Protocol: Female severe combined immunodeficient mice and female athymic nude mice (NCr), 5 to 8 weeks of age and weighing ˜20 to 25 g, were purchased from The Jackson Laboratory and Taconic, respectively. The animals were housed at the Exelixis vivarium facilities according to guidelines outlined by the Exelixis Institutional Animal Care and Use Committee. During all studies, animals were provided food and water ad libitum and housed in a room conditioned at 70° F. to 75° F. and 60% relative humidity.
# Before treatment, H1975, A431, or MDA-MB-231 cells were harvested from exponentially growing cultures, detached by brief trypsinization, washed twice in cold HBSS, resuspended in ice-cold HBSS, and implanted either s.c. (H1975, 3×10^6 cells per mouse) or i.d. (A431, 1×10^6 cells per mouse) into the dorsal hind flank or s.c. into the mammary fat pad (MDA-MB-231, 1×10^6 cells per mouse). Palpable tumors were measured by caliper twice weekly until the mean tumor weight was in the range of ˜80 to 120 mg. Tumor weight was determined by measuring perpendicular diameters with a caliper and multiplying the measurements of diameters in two dimensions: tumor […]. Tumor weight (mg) was extrapolated from tumor volume (mm3) by assuming a conversion factor of 1. On the appropriate day after implantation, mice were grouped (10 mice per group) such that the group mean tumor weight was ˜100±15 mg. The mean tumor weight of each animal in the respective control and treatment groups was determined twice weekly during the dosing periods. Tumor xenografts were established in female mice and allowed to reach approximately 100 mg prior to treatment. An example is described in Gendreau S B, Ventura R, Keast P, et al., Inhibition of the T790M Gatekeeper Mutant of the Epidermal Growth Factor Receptor by EXEL-7647, Clin Cancer Res 3713, 13(12) (2007), which is hereby incorporated by reference.
# (§1) The response of tumors to treatment was determined by comparing the mean tumor weight of the treatment group with the appropriate control group. Percentage inhibition of tumor growth was determined with the following formula: Percentage inhibition=100×[1−(Xf−Xo)/(Yf−Yo)], where Xf and Yf are the mean tumor weights of the treatment and control groups, respectively, on day f, and Xo and Yo are the mean tumor weights of treatment and control groups respectively, on day zero (staged tumor weights after grouping)
# [3] = target: T1, GABA A, BDZ, alpha 1, Central (Homo sapiens, UniProt P14867+P18507); assay: NovaScreen assay; format: binding; settings: read-out: Inhibition, 10 μM XL-647
# T1 construct: NovaScreen
# [4] = test system: bpk mice
# Description: The BPK model of ARPKD retains the same altered location of EGFR that is seen in murine and human ADPKD. This model is therefore widely accepted as a general means for affecting the EGFR abnormality in PKD, both ARPKD and ADPKD. The BPK model arose as a spontaneous mutation in an inbred colony of BALB/c mice. Homozygous bpk mice develop massively enlarged kidneys and die of renal failure at an average postnatal age of 24 days (PN-24). […] Extra renal manifestations include biliary proliferation and ductal ectasia. Because of the recessive nature of the disease, wild type +/+ and heterozygous bpk/+ mice are phenotypically normal. The primary measurement used in these studies is a comparison of the kidney weight to body weight ratio (KW/BW). […] Additional measurements include assessment of renal function (BUN, creatinine and MUCA) and histological evaluation of kidney size and collecting tubules-cystic index (CT-CI).
# These animals were housed in Medical College of Wisconsin vivarium facilities. All animal experiments were conducted in accordance with policies of the NIH Guide for the Care and Use of Laboratory Animals and the Institutional Animal Care and Use Committee of the Medical College of Wisconsin.
# Animals were treated from PN-7 through PN-21 and evaluated for extent of disease. The identity of […] animals can be readily determined post-mortem by the presence of greatly enlarged kidneys. On PN-21, the study was terminated and animals were sacrificed. The mass of each animal was determined. Both kidneys from each animal were excised and weighed. The kidney weight to body weight ratio (KW/BW) was determined by the following formula: KW/BW=[mass of both kidneys]/[mass of animal].
# In addition, renal cystic index (CI) was calculated. Lectins specific to the proximal tubules (PTs) (lotus tetragonolobus [LTA]) and collecting tubules (CTs) (Dolichos biflorus agglutins [DBA]) were stained and used to assess severity of cystic dilations on a scale from 0-5. Renal function was assessed by obtaining BUN and creatinine levels via cardiac puncture. MUCA was measured after keeping the animals without water for 12 hrs.
# [5] = target: T2, Neurokinin, NK2 (NKA) (Human Recombinant) (Homo sapiens, UniProt P21452); assay: NovaScreen assay; format: binding; settings: read-out: Inhibition, 10 μM XL-647
# T2 construct: NovaScreen
# [6] = test system: Adrenergic, Beta, Non-selective; assay: NovaScreen assay; format: binding
# [7] = test system: Potassium Channel, ATP-Sensitive; assay: NovaScreen assay; format: binding
# [8] = target: T3, Bradykinin, BK2 (Homo sapiens, UniProt P30411); assay: NovaScreen assay; format: binding; settings: read-out: Inhibition, 10 μM XL-647
# T3 construct: NovaScreen
# [9] = test system: Dopamine, Non-selective; assay: NovaScreen assay; format: binding
# [10] = target: T4, Leukotriene D4, LTD4 (Homo sapiens, UniProt Q9Y271); assay: NovaScreen assay; format: binding; settings: read-out: Inhibition, 10 μM XL-647
# T4 construct: NovaScreen
# [11] = test system: Nicotinic (a-bungarotoxin insensitive); assay: NovaScreen assay; format: binding
# [12] = test system: BT474 human tumor xenograft; assay: BT474 xenograft, tumor growth; format: in vivo; settings: Mus musculus
# Protocol: as §1
# [13] = test system: Glutamic Acid Decarboxylase; assay: NovaScreen assay; format: biochemical
# [14] = 7.5 mg/kg/day, PN Day 21, 7.5 mg/kg/day
# [15] = 7.5 mg/kg/day, PN Day 21, listed as PRIM-001, 7.5 mg/kg/day
# T4 sequence (Q9Y271 whole entry): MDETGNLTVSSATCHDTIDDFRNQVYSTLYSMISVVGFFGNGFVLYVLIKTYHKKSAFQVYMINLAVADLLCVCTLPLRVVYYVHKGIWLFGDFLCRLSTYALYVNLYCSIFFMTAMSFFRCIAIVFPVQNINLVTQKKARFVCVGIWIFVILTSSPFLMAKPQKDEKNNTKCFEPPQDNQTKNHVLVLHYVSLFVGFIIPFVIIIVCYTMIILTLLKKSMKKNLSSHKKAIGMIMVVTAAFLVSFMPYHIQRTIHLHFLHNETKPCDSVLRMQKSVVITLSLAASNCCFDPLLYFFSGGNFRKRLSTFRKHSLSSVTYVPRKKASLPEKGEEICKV
# T2 sequence (P21452 whole entry): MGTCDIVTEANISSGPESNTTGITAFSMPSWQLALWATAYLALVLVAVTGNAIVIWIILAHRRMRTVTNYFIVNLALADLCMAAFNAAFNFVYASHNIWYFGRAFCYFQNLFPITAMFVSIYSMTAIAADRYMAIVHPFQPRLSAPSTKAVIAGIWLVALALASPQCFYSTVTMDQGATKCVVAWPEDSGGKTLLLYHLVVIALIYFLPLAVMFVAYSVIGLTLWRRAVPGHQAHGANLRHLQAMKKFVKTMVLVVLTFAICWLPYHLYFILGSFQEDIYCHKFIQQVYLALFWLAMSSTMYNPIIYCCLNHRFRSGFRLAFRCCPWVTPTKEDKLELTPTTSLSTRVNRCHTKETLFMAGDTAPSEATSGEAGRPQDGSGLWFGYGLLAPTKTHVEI
# T1 sequence (P14867 28-456): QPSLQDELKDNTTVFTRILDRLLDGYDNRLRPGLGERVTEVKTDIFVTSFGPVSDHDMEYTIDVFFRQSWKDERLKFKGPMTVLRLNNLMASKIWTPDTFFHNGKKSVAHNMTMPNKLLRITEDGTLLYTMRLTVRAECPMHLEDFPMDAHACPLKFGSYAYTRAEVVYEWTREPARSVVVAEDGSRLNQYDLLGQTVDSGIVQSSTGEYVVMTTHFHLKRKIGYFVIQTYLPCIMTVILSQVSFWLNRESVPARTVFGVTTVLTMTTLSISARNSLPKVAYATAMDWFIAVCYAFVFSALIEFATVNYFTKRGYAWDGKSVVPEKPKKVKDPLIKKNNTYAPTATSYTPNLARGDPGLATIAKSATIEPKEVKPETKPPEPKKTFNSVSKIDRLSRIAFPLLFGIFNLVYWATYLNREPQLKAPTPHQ
# T1 sequence (P18507 40-475): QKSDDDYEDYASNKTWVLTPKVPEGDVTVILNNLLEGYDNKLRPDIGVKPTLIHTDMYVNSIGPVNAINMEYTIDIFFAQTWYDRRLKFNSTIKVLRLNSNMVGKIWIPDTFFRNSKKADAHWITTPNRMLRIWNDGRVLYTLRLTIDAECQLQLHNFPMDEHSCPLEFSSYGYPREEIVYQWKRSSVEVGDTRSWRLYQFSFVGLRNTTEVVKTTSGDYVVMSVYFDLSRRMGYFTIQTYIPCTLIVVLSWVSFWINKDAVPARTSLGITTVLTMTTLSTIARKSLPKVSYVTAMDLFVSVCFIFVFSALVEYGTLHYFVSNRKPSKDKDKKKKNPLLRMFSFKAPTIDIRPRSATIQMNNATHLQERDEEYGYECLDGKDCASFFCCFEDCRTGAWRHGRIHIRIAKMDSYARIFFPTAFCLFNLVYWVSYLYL
# T1 sequence (P47870 25-512 partner limits assumed): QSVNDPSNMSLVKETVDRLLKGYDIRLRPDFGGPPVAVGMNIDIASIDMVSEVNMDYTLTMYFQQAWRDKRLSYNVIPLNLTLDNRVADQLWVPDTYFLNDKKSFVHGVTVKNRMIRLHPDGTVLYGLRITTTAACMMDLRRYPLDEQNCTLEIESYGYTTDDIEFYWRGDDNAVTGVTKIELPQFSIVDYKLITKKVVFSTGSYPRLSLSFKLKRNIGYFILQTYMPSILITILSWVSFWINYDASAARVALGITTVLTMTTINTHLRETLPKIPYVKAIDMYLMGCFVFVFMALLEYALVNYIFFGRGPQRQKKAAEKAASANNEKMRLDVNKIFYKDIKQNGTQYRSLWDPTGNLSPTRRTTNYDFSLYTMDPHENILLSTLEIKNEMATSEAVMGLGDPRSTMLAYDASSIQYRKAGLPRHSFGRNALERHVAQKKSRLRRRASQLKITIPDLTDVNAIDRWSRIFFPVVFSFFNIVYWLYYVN
# T3 sequence (P30411 whole entry): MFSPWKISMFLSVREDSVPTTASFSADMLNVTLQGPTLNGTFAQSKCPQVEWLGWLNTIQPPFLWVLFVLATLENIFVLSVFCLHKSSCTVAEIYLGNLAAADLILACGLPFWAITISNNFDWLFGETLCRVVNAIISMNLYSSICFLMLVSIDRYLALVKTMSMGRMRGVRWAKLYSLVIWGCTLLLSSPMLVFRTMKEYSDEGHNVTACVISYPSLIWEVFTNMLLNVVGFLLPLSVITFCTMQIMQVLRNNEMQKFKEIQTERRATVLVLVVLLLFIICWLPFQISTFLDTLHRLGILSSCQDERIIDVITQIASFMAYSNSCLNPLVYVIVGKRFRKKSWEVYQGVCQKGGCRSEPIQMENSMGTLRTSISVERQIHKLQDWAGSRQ
smiles,measurement,setting,value
"COc1cc2c(Nc3ccc(Cl)c(Cl)c3F)ncnc2cc1OC[C@@H]1C[C@@H]2CN(C)C[C@@H]2C1 [XL-647, N-(3,4-dichloro-2-fluorophenyl)-7-({[(3aR,5r,6aS)-2-methyloctahydrocyclopenta[c]pyrrol-5-yl]methyl}oxy)-6-(methyloxy)quinazolin-4-amine]","Inhibition, 10 μM XL-647",[1],50.90%
same,tumor growth inhibition,"[2]; 10 mg/kg/day oral, 14 days",65%
same,final tumor weight (marked regression),"[2]; 100 mg/kg/day oral, 14 days, starting weight 109±20 mg",36 ± 15 mg
same,"tumor growth, in words","[2]; 10, 30, and 100 mg/kg/day oral, 14 days",significantly inhibited tumor growth in a dose dependent manner
same,ED50,"[2]; A-431, qd × 14",5.9 mg/kg
same,ED50,"[2]; A-431, qd × 28",3.8 mg/kg
same,inhibition at 10 µM,[3],7.34%
same,decrease of CT-CI,[4]; 7.5 mg/kg q.d.,25%
same,decrease of KW/BW,[4]; 7.5 mg/kg q.d.,21.5%
same,decrease of creatinine,[4]; 7.5 mg/kg q.d.,8.3%
same,improvement of MUCA,[4]; 7.5 mg/kg q.d.,20.1%
same,reduction of kidney weight,[4]; 7.5 mg/kg q.d.,21.8%
same,decrease of BUN,"[4]; 7.5 mg/kg q.d., 7.5 mg/kg",42%
same,BUN,"[4]; 7.5 mg/kg/day, PN Day 21",63.43 mg/dL
same,CT-CI,"[4]; 7.5 mg/kg/day, PN Day 21",3.60
same,Creatinine,"[4]; 7.5 mg/kg/day, PN Day 21",0.44 mg/dL
same,MUCA,"[4]; 7.5 mg/kg/day, PN Day 21",560.0 mOsmol
same,Kidney Weight,[4]; [14],1.61 ± 0.23 g
same,Kidney/Body weight,[4]; [14],15.34±1.26%
same,Kidney Weight,[4]; [15],1.61 g
same,Kidney/Body weight,[4]; [15],15.34%
same,decrease of BUN,[4]; 15 mg/kg q.d.,60.5%
same,decrease of CT-CI,[4]; 15 mg/kg q.d.,45.8%
same,decrease of creatinine,[4]; 15 mg/kg q.d.,25%
same,improvement of MUCA,[4]; 15 mg/kg q.d.,66.2%
same,reduction of kidney weight,[4]; 15 mg/kg q.d.,40.3%
same,BUN,"[4]; 15 mg/kg/day, PN Day 21",43.20 mg/dL
same,CT-CI,"[4]; 15 mg/kg/day, PN Day 21",2.60
same,Creatinine,"[4]; 15 mg/kg/day, PN Day 21",0.36 mg/dL
same,Kidney/Body weight,"[4]; 15 mg/kg/day, PN Day 21",12.36%
same,MUCA,"[4]; 15 mg/kg/day, PN Day 21",775.0 mOsmol
same,Kidney Weight,"[4]; 15 mg/kg/day, PN Day 21, 15 mg/kg/day",1.28 ± 0.09 g
same,Kidney Weight,"[4]; 15 mg/kg/day, PN Day 21, listed as PRIM-001, 15 mg/kg/day",1.28 g
same,inhibition at 10 µM,[5],34.2%
same,"Inhibition, 10 μM XL-647",[6],18.01%
same,"Inhibition, 10 μM XL-647",[7],5.02%
same,inhibition at 10 µM,[8],48.8%
same,"Inhibition, 10 μM XL-647",[9],34.88%
same,inhibition at 10 µM,[10],-11.9%
same,"Inhibition, 10 μM XL-647",[11],53.97%
same,ED50,"[12]; BT-474, qd × 14",9.8 mg/kg
same,ED50,"[12]; BT-474, qd × 28",21.9 mg/kg
same,"Inhibition, 10 μM XL-647",[13],−8.46%
